The values below come from paper PMC4901301 (Scientific Reports, 2016).

Type in all cases: cell-based, Mycobacterium tuberculosis
In one assay the test system is Mtb MT 182. Nature of the assay: Resazurin (Alamar Blue) drug susceptibility testing, MT 182. A general note: Alamar Blue is a resazurin reagent that responds to reducing activity.
A further assay deals with Mtb TC 12561. Nature of the assay: Resazurin (Alamar Blue) drug susceptibility testing, TC 12561.
Another assay concerns Mtb TH 12768. Nature of the assay: Resazurin (Alamar Blue) drug susceptibility testing, TH 12768.
In assay [1] the test system is Mtb H37Rv thyX Tet-OFF conditional knockdown mutant.

In brackets after ≈: the same amount, converted by molar mass. Where two headings read alike, the source gives them in different places.

Broadly, the MIC is the lowest concentration that inhibits growth of the organism. For `O=C1C(O)=C(Cc2ccc(-c3ccc(Cl)cc3)cc2)C(=O)c2ccccc21` [Compound 007B], the minimal inhibitory concentration (MIC) worked out at 83.4 µM (≈ 31.3 µg/mL) with Mtb MT 182 (read-out: MIC), 83.4 µM (≈ 31.3 µg/mL) in the assay on Mtb TC 12561 (read-out: MIC) and 41.7 µM (≈ 15.6 µg/mL) in the assay on Mtb TH 12768 (read-out: MIC).

Take `O=C1C(O)=C(Cc2ccc(OC(F)(F)F)cc2)C(=O)c2ccccc21` [Compound 007C]: the MIC in the assay on Mtb MT 182 (read-out: MIC), with Mtb TC 12561 (read-out: MIC) and in the assay on Mtb TH 12768 (read-out: MIC) was 44.9 µM (≈ 15.6 µg/mL) in each case.

As to `CC(C)Oc1ccc(CC2=C(O)C(=O)c3ccccc3C2=O)cc1` [Compound 007D], the minimum inhibitory concentration (MIC) in the assay on Mtb MT 182 (read-out: MIC), in the assay on Mtb TC 12561 (read-out: MIC) and in the assay on Mtb TH 12768 (read-out: MIC) was 96.9 µM (≈ 31.2 µg/mL) each time.

On to `O=C1C(O)=C(Cc2ccc(C(F)(F)F)cc2)C(=O)c2ccccc21` [Compound 007F], for which the MIC was determined as 94.1 µM (≈ 31.3 µg/mL) with Mtb MT 182 (read-out: MIC), 47.0 µM (≈ 15.6 µg/mL) in the assay with Mtb TC 12561 (read-out: MIC) and 94.1 µM (≈ 31.3 µg/mL) in the assay on Mtb TH 12768 (read-out: MIC).

On to `O=C1C(O)=C(Cc2ccc(Oc3ccccc3)cc2)C(=O)c2ccccc21` [Compound 007G], for which the MIC in the assay with Mtb MT 182 (read-out: MIC) was found to be 87.8 µM (≈ 31.3 µg/mL); with Mtb TC 12561 (read-out: MIC), 87.8 µM (≈ 31.3 µg/mL); with Mtb TH 12768 (read-out: MIC), 175.5 µM (≈ 62.5 µg/mL).

As for `O=C1C(O)=C(Cc2ccc(Cl)cc2)C(=O)c2ccccc21` [Compound 010A], the MIC in the assay on Mtb MT 182 (read-out: MIC) came to 104.6 µM (≈ 31.2 µg/mL); with Mtb TC 12561 (read-out: MIC) it was 52.3 µM (≈ 15.6 µg/mL); in the assay on Mtb TH 12768 (read-out: MIC), 104.6 µM (≈ 31.2 µg/mL).

In the case of `O=C1C(O)=C(Cc2cc(F)cc(F)c2)C(=O)c2ccccc21` [Compound 010B], the minimal inhibitory concentration (MIC) was determined as 104.1 µM (≈ 31.3 µg/mL) in the assay with Mtb MT 182 (read-out: MIC), 104.1 µM (≈ 31.3 µg/mL) with Mtb TC 12561 (read-out: MIC) and 52.1 µM (≈ 15.6 µg/mL) with Mtb TH 12768 (read-out: MIC).

Consider `O=C1C(O)=C(Cc2ccco2)C(=O)c2ccccc21` [Compound 010C], for which the MIC in the assay with Mtb MT 182 (read-out: MIC), in the assay on Mtb TC 12561 (read-out: MIC) and in the assay with Mtb TH 12768 (read-out: MIC) was 176.5 µM (≈ 44.9 µg/mL) throughout.

As to `O=C1C(O)=C(Cc2cccs2)C(=O)c2ccccc21` [Compound 010D], the MIC came to 462.4 µM (≈ 125 µg/mL) in the assay on Mtb MT 182 (read-out: MIC), 57.8 µM (≈ 15.6 µg/mL) with Mtb TC 12561 (read-out: MIC) and 231.2 µM (≈ 62.5 µg/mL) in the assay on Mtb TH 12768 (read-out: MIC).

With `O=C1C(O)=C(Cc2ccc(F)c(C(F)(F)F)c2)C(=O)c2ccccc21` [Compound 010E], the minimal inhibitory concentration (MIC) in the assay with Mtb MT 182 (read-out: MIC), in the assay with Mtb TC 12561 (read-out: MIC) and in the assay with Mtb TH 12768 (read-out: MIC) was 22.3 µM (≈ 7.81 µg/mL) throughout.

Consider `O=C1C(O)=C(Cc2ccc(F)c(Cl)c2)C(=O)c2ccccc21` [Compound 010F], for which the minimum inhibitory concentration (MIC) in the assay on Mtb MT 182 (read-out: MIC) came to 98.7 µM (≈ 31.3 µg/mL); in the assay with Mtb TC 12561 (read-out: MIC), 49.3 µM (≈ 15.6 µg/mL); in the assay with Mtb TH 12768 (read-out: MIC) it was 197.3 µM (≈ 62.5 µg/mL).

On to `COc1cc(CC2=C(O)C(=O)c3ccccc3C2=O)ccc1O` [Compound 010H], for which the minimum inhibitory concentration (MIC) was determined as 100.7 µM (≈ 31.2 µg/mL) in the assay with Mtb MT 182 (read-out: MIC), 201.4 µM (≈ 62.5 µg/mL) in the assay with Mtb TC 12561 (read-out: MIC) and 201.4 µM (≈ 62.5 µg/mL) with Mtb TH 12768 (read-out: MIC).

For `CCCCC1=C(O)C(=O)c2ccccc2C1=O` [Compound 010I], the minimum inhibitory concentration (MIC) is listed as 135.7 µM (≈ 31.2 µg/mL) with Mtb MT 182 (read-out: MIC), 271.4 µM (≈ 62.5 µg/mL) in the assay on Mtb TC 12561 (read-out: MIC) and 135.7 µM (≈ 31.2 µg/mL) in the assay on Mtb TH 12768 (read-out: MIC).

For `COc1ccc(CC2=C(O)C(=O)c3ccccc3C2=O)cc1OC` [Compound 010K], the minimal inhibitory concentration (MIC) with Mtb MT 182 (read-out: MIC) worked out at 385.4 µM (≈ 125 µg/mL); with Mtb TC 12561 (read-out: MIC) it was 192.7 µM (≈ 62.5 µg/mL); in the assay on Mtb TH 12768 (read-out: MIC) it was 192.7 µM (≈ 62.5 µg/mL).

Take `CCOC(=O)C1=C(c2ccc(C)cc2)C(=O)c2ccccc2C1=O` [Compound B6, ethyl 3-(4-methylphenyl)-1,4-dioxonaphtalene-2-carboxylate]: the “MIC90 shift (increase in potency) upon ThyX depletion” value in assay [1] is recorded as “no shift”.

With `CS(=O)(=O)N1CCN(C2=C(Cl)C(=O)c3ccccc3C2=O)CC1` [Compound E1, 2-chloro-3-(4-methanesulfonylpiperazin-1-yl)-1,4-dihydronaphthalene-1,4-dione], the “MIC90 shift (increase in potency) upon ThyX depletion” value in assay [1] is at least 4 fold.

With `NNC(=O)c1ccncc1` [INH, isoniazid, reference compound], the minimal inhibitory concentration (MIC) in the assay on Mtb MT 182 (Mycobacterium tuberculosis, MT182, read-out: MIC) is below 0.91 µM; in the assay on Mtb TC 12561 (Mycobacterium tuberculosis, TC12561, read-out: MIC), 14.6 µM (≈ 2 µg/mL); with Mtb TH 12768 (Mycobacterium tuberculosis, TH12768, read-out: MIC), 3.64 µM (≈ 0.499 µg/mL).

For `COC1=C(OC)C(=O)C(CCCCCCCCCCO)=C(C)C1=O` [Idebenone, idebenone, reference compound], the Growth inhibition in assay [1] is on record as ~ 90%.

As for `CO[C@H]1/C=C/O[C@@]2(C)Oc3c(C)c(O)c4c(O)c(c(/C=N/N5CCN(C)CC5)c(O)c4c3C2=O)NC(=O)/C(C)=C\C=C\[C@H](C)[C@H](O)[C@@H](C)[C@@H](O)[C@@H](C)[C@H](OC(C)=O)[C@@H]1C` [RMP, rifampicin, reference compound], the MIC is 1.21 µM (≈ 0.996 µg/mL) in the assay with Mtb MT 182 (Mycobacterium tuberculosis, MT182); 4.86 µM (≈ 4 µg/mL) with Mtb TC 12561 (Mycobacterium tuberculosis, TC12561); below 0.3 µM with Mtb TH 12768 (Mycobacterium tuberculosis, TH12768).
